In patent US9169182B2, “Chrysophaentin analogs that inhibit FtsZ protein” (priority 2011, dated 2015):
Converted amounts (≈) assume the structure as drawn.

What was measured:
[1] = system: Bacillus subtilis (ATCC 49343); assay: Microbroth dilution assay; assay type: cell-based; conditions: ATCC49343, read-out: MIC50 values in μM BS
Protocol: (§1) Compounds 1-8 were tested for antimicrobial activity against Staphylococcus aureus (SA, ATCC 25923), methicillin-resistant S. aureus (MRSA, ATCC BAA-41), multidrug-resistant S. aureus (MDRSA, ATCC BAA-44), Enterococcus faecium (EF, ATCC 49032), vancomycin-resistant E. Faecium (VRE, ATCC 700221), and Bacillus subtilis (ATCC 49343) using a modified disk diffusion assay and microbroth liquid dilution assays. For disk diffusion assays, agar plates seeded with suspensions of bacteria were prepared by adding 500 μL of a 24 h culture of bacteria to 100 mL of autoclaved Mueller Hinton II agar and cooled to 55° C. Seeded liquid agar (10 mL) was transferred immediately to square Petri dishes and allowed to cool for 1 h. Control drugs used for each microorganism included kanamycin (50 μg) for S. aureus, and nitrofurantoin (25 μg) for MRSA. Following incubation at 37° C. for 18 h, zones of inhibition were measured. MICso values for compounds 1 and 4-8 were determined using a microbroth dilution assay outlined in the Clinical and Laboratory Standards Institute methods for susceptibility tests for bacteria that grow aerobically. Briefly, single bacterial colonies were used to inoculate 4 mL of Trypticase Soy broth (BD) for overnight growth and inoculum for each were diluted to 5×10^5 CFU/mL using the 0.5 McFarland standard. In a 96 well plate (Costar, round bottom), control antibiotics (oxacillin for SA and MRSA, vancomycin for EF and VRE, chloramphenicol for B. subtilis) or natural product inhibitors were added to Mueller Hinton II broth (for S. aureus, MRSA, and B. subtilis) or 10% brain heart infusion broth (for E. faecium and VRE) in the first column of the well plates, and serially diluted across the plate, reserving wells for a positive growth control (no treatment). 10 μL of diluted bacteria were added to all wells with the exception of those kept for broth blanks (MHII or brain heart infusion broth only). Plates were incubated at 37° C. overnight and read at absorbance 600 nm on a Molecular Devices plate reader. Growth curves were plotted and ICso values obtained using Kalidagraph software.
(§2) Compounds J23 and J24 were tested for antimicrobial activity against Bacillus subtilis (BS, ATCC 49343), Staphylococcus aureus (SA, ATCC 25923), methicillin-resistant S. aureus (MRSA, ATCC BAA-41), multidrug-resistant S. aureus (MDRSA, ATCC BAA-44), Escherichia coli (EC, ATCC 8739), envelope-deficient E. coli (envA-EC; permeable (envA-) BL21(DE3)pLysS E. coli [constructed using standard P1 transduction methodology, utilizing a Tn10transposon linked to the envA1 gene]; Wang et al., J. Biol. Chem. 2003, 278(45):44424-44428), a clinical isolate of S. aureus (UAMS-1; clinical osteomyelitis isolate; Olson et al., PLoS Pathogens 2011, 7(2):e1001287, www.plospathogens.org), and a clinical isolate of MRSA (USA300; the strain USA300-0114 is the predominant cause of U.S. community-associated methicillin resistant S. aureus infections). MIC50 values were determined using a microbroth dilution assay as described in Example 2. E. coli was grown in Mueller Hinton II broth.

[2] = system: Escherichia coli (EC, ATCC 8739); assay: Microbroth dilution assay; assay type: cell-based; conditions: ATCC8739
Protocol: as §1, §2

[3] = system: Staphylococcus aureus (SA, ATCC 25923); assay: Microbroth dilution assay; assay type: cell-based; conditions: ATCC25923, microbroth dilution
Protocol: as §1, §2

[4] = system: clinical isolate of MRSA (USA300); assay: Microbroth dilution assay; assay type: cell-based; conditions: Staphylococcus aureus
Protocol: as §1, §2

[5] = system: clinical isolate of S. aureus (UAMS-1); assay: Microbroth dilution assay; assay type: cell-based; conditions: Staphylococcus aureus
Protocol: as §1, §2

[6] = system: envelope-deficient E. coli (envA-EC); assay: Microbroth dilution assay; assay type: cell-based; conditions: Escherichia coli, read-out: MIC50 values in μM envA-EC
Protocol: as §1, §2

[7] = system: methicillin-resistant S. aureus (MRSA, ATCC BAA-41); assay: Microbroth dilution assay; assay type: cell-based; conditions: Staphylococcus aureus
Protocol: as §1, §2

[8] = system: multidrug-resistant S. aureus (MDRSA, ATCC BAA-44); assay: Microbroth dilution assay; assay type: cell-based; conditions: Staphylococcus aureus, ATCCBAA44, read-out: MIC50 values in μM MDRSA
Protocol: as §1, §2

Sa-FtsZ = Sa-FtsZ (Staphylococcus aureus, UniProt P0A031); assay type: biochemical; conditions: GTPase assay; read-out: FtsZ in vitro IC50 μM Sa-FtsZ
Protocol: (§3) Solutions were incubated at room temperature for 5 min, followed by addition of 0.25 mM GTP. At the end of a 20-min incubation period, enzyme activity was quenched by addition of 50 μL Malachite Green solution and the wells read at A^625 on an absorbance plate reader.

recombinant E. coli FtsZ = recombinant E. coli FtsZ (Escherichia coli (strain K12), UniProt P0A9A6); assay: FtsZ GTPase assay (malachite green); conditions: read-out: FtsZ in vitro IC50 μM Ec-FtsZ
recombinant E. coli FtsZ, sequence (P0A9A6 whole entry, looked up): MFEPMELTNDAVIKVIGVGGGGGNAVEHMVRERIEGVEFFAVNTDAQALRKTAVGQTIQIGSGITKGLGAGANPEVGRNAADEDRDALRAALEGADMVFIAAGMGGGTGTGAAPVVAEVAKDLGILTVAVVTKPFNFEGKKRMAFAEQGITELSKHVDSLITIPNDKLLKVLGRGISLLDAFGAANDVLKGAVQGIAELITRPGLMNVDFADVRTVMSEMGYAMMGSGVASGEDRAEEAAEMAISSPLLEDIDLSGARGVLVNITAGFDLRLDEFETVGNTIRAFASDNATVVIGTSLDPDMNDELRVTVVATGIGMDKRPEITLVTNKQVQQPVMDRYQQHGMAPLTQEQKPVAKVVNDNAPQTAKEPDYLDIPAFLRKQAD
Protocol: as §3

COc1cc(C/C=C(/Cl)Cc2cc(O)cc(O)c2)c(OC)cc1Cl [Compound J23, (E)-5-(2-chloro-4-(4-chloro-2,5-dimethoxyphenyl)but-2-enyl)benzene-1,3-diol]
MIC50 [1]: 19 µM (≈ 7.02 µg/mL) | MIC50 [2]: > 270 µM | MIC50 [3]: 12 µM (≈ 4.43 µg/mL) | MIC50 [4]: 6 µM (≈ 2.22 µg/mL) | MIC50 [5]: 7.4 µM (≈ 2.73 µg/mL) | MIC50 [6]: 120 µM (≈ 44.3 µg/mL) | MIC50 [7]: 12 µM (≈ 4.43 µg/mL) | MIC50 [8]: 12 µM (≈ 4.43 µg/mL) | IC50 (Sa-FtsZ): 44 ± 12 µM | IC50 (recombinant E. coli FtsZ): 36 ± 7 µM

Oc1cc(O)cc(C/C(Cl)=C\Cc2cc(O)c(Cl)cc2O)c1 [Compound J24, (E)-5-(2-chloro-4-(4-chloro-2,5-dihydroxyphenyl)but-2-enyl)-benzene-1,3-diol]
MIC50 [1]: 11 µM (≈ 3.75 µg/mL) | MIC50 [2]: > 290 µM | MIC50 [3]: 18 µM (≈ 6.14 µg/mL) | MIC50 [6]: 72 µM (≈ 24.6 µg/mL) | MIC50 [7]: 22 µM (≈ 7.51 µg/mL) | MIC50 [8]: 26 µM (≈ 8.87 µg/mL) | IC50 (Sa-FtsZ): 88 ± 11 µM | IC50 (recombinant E. coli FtsZ): 160 ± 30 µM
